# Measured values taken from ChEMBL document CHEMBL1201862, “PubChem BioAssay data set” (2004).
# Active and inactive are the calls of the source.
# What was measured:
# NS3 = NS3 (Hepatitis C virus, UniProt A3EZJ3); assay: PubChem AID 2173; parameters: species or system Hepacivirus hominis
# [1] = target: Mothers against decapentaplegic homolog 3 (Homo sapiens, UniProt P84022); assay: SMAD3 transcription factor inhibitors, dose response (AID 715); format: functional
# [2] = target: Lysosomal acid glucosylceramidase (Homo sapiens, UniProt P04062); assay: Dose response cell-based high throughput screening assay to identify enhancers of beta-glucosidase activity. [Related pubchem assays: 784 ]; format: functional
# Oxytocin receptor = Oxytocin receptor (Homo sapiens, UniProt P30559); assay: Counterscreen for vasopressin 1 receptor (V1R) agonists: Fluorescence-based cell-based high throughput dose response assay for agonists of the Oxytocin Receptor (OXTR). [Related pubchem assays: 2435 (Primary screen (OXTR agonists in singlicate)), 434964 (Confirmation screen (V1R agonists in triplicate)), 434969 (Counterscreen (OXTR agonists in …; format: functional
# Vasopressin V1a receptor = Vasopressin V1a receptor (Homo sapiens, UniProt P37288); assay: Fluorescence-based cell-based high throughput dose response screening assay for agonists of the vasopressin 1 receptor (V1R).; format: functional
# [3] = target: G2/mitotic-specific cyclin-B1 (Homo sapiens, UniProt P14635); assay: Counterscreen assay for inhibitors of Wee1 degradation: dose response cell-based assay to identify inhibitors of cyclin B degradation. [Related pubchem assays: 1410, 1321 ]; format: functional
# Wee1-like protein kinase = Wee1-like protein kinase (Homo sapiens, UniProt P30291); assay: Dose Response Cell-based Assay for Inhibitors of Wee1 Degradation. [Related pubchem assays: 1410, 1321 ]; format: functional
# [4] = MC4R antagonists, dose response, counter-screen for LGR2 antagonist project, cell-based, plate reader, cherry pick (AID 743444); format: functional;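 note: transfected HEK 293 cells stimulated with alpha-MSH peptide; potency of inhibitors of the alpha-MSH evoked signal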
# [5] = HepG2 cell cytotoxicity, dose response, cytotoxicity control, plate reader, cherry-pick, antagonist series (AID 743416); format: functional, cell-based
# [6] = HEK293 cell cytotoxicity, dose response, cytotoxicity control, plate reader, cherry-picked samples (AID 743446); format: functional, cell-based
# [7] = target: Sphingosine 1-phosphate receptor 1 (Homo sapiens, UniProt P21453); format: functional;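 note: Tango beta-arrestin reporter U2OS cells stimulated with S1P near its EC80; inhibitor potency meaning antagonism of receptor activation by the natural agonist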
# [8] = A549 cell cytotoxicity, dose response, cytotoxicity control, plate reader, cherry-pick, antagonist series (AID 743412); format: functional, cell-based
# [9] = inhibitors of intracellular T. cruzi replication, confirmation, NIH3T3 host cells, beta-gal luminescence (AID 2044); format: functional, cell-based;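 note: intracellular parasites grown in NIH/3T3 mouse fibroblasts as host cells; luminescent beta-galactosidase reporter signal from transgenic T. cruzi replicating inside host cells; inhibitors lower the luminescence signal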
# [10] = LGR2 antagonists, dose response, cell-based, HEK293, CRE-luciferase reporter, cherry pick, set 2 (AID 743343); format: functional;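 note: transfected cells were stimulated with diluted bursicon conditioned medium after compound addition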
# Vero [11] = assay: cells; format: functional; conditions: Chlorocebus sabaeus
# [12] = target: T1, Microphthalmia-associated transcription factor (Homo sapiens, UniProt O75030); assay: TRPM1 promoter luciferase signal decrease, dose response, MITF inhibitor project, cell-based, SK-MEL-5, cherry-picked, set 3 (AID 493073); format: functional
# T1 sequence (O75030 whole entry): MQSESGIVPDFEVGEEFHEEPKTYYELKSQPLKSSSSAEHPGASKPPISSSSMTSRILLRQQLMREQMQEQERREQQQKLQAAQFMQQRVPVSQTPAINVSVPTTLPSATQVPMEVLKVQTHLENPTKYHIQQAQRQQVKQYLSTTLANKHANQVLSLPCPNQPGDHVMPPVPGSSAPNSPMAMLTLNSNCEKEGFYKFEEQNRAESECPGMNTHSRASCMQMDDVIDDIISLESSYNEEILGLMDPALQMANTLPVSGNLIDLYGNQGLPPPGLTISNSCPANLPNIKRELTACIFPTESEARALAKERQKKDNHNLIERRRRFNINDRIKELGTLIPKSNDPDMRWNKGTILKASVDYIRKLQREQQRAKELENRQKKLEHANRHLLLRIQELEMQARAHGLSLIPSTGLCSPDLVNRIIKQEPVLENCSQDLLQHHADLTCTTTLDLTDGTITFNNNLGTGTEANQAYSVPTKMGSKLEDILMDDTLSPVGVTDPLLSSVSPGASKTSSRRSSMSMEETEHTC
# [13] = cytotoxicity in MIN6 insulinoma cells, dose response, cytotoxicity control, cell-based, mouse insulinoma (AID 2122); format: functional;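 note: confirmatory high-throughput counterscreen run to flag cytotoxic compounds; mouse MIN-6 beta cells carrying an insulin promoter eGFP reporter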
# [14] = cytotoxicity toward NIH3T3 fibroblasts, dose response, counter-screen, cell-based, ATP luminescence, mouse fibroblasts (AID 2010); format: functional;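 note: cells exposed to compound for about 90 hours before reading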
# Vero [15] = assay: cells; format: functional, cell-based; conditions: Chlorocebus sabaeus
# [16] = target: T2, Sphingosine 1-phosphate receptor 4 (Homo sapiens, UniProt O95977); assay: Fluorescence dose response cell-based high throughput screening assay for antagonists of the Sphingosine 1-Phosphate Receptor 4 (S1P4). [Related pubchem assays: 1524 (Confirmation in triplicates.), 1510 (Primary screen.)]; format: functional
# T2 sequence (O95977 whole entry): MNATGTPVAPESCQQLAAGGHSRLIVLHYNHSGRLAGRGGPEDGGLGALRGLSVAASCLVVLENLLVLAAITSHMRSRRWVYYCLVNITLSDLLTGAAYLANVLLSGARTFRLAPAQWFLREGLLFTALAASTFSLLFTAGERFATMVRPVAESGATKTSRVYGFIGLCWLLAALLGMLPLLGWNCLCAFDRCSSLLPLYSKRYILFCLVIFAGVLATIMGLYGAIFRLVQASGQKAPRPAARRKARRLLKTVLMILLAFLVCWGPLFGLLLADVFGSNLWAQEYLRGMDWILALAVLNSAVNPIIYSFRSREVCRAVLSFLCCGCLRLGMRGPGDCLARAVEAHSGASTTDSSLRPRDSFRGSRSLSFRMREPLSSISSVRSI
# [17] = insulin promoter down-regulators in MIN6 cells, imaging, high-content screening, mouse beta cells (AID 1628); format: functional
# NADPH oxidase 1 = NADPH oxidase 1 (Homo sapiens, UniProt Q9Y5S8); format: functional, cell-based;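 note: Cell-based assay with luminescence read-out, IC50 derived from inhibitor dose-response curves; intracellular ROS from endogenous NOX1 in intact HT29 colon cancer cells; potency of inhibitors that lower the ROS luminescence signal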
# [18] = HeLa 2N DNA content increase, dose response, cell-based, IC50 (AID 1117349); format: functional
# [19] = Glucagon-like peptide 1 release potency, NCI-H716 cell line, dose-response, half-maximal inhibitory concentration (AID 1117344); format: functional, cell-based
# [20] = half-maximal inhibitory concentration for glucagon-like peptide-1 release, STC-1 cell line, dose-response (AID 1117345); format: functional, cell-based
# [21] = target: Serine/threonine-protein phosphatase (Homo sapiens, UniProt Q9BPW0); assay: Counterscreen for inhibitors of PP1: fluorescence-based biochemical high throughput dose response assay to identify inhibitors of Protein Phosphatase 5 (PP5). [Related pubchem assays: 2034 (Summary (PP5 inhibitors)), 1987 (PP5 inhibitors in singlate), 2235 (PP1 inhibitors in singlate)]
# [22] = HeLa 4N DNA content increase, dose response, cell-based, IC50 (AID 1117351); format: functional
# [23] = target: Epstein-Barr nuclear antigen 1 (Epstein-Barr virus (strain B95-8) (HHV-4) (Human herpesvirus 4), UniProt P03211); assay: EBNA-1 inhibitors, dose response, biochemical, fluorescence polarization, 1536-well (AID 2381); parameters: species or system human gammaherpesvirus 4;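 note: fluorescence polarization of a Cy5 DNA probe bound by EBNA-1 protein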
# [24] = target: Lytic switch protein BZLF1 (Epstein-Barr virus (strain B95-8) (HHV-4) (Human herpesvirus 4), UniProt P03206); assay: EBV ZTA inhibitors, dose response, counter-screen for EBNA-1 inhibitor project, biochemical, fluorescence polarization, Epstein-Barr virus, 1536-well (AID 2377); parameters: species or system human gammaherpesvirus 4;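 note: fluorescence polarization of Cy5-labelled ZRE DNA probe bound by purified Zta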
# [25] = cytotoxicity in HEK-293T cells, dose response, cytotoxicity control for BCR NF-kB inhibitor project, luminescence, B-cell screen hits (AID 489021); format: functional, cell-based;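 note: HEK-293T cells carrying an NF-kB luciferase reporter; cells exposed to compound for about 14 hours before viability readout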
# Sequence of Serine/threonine-protein phosphatase (Q9BPW0 whole entry): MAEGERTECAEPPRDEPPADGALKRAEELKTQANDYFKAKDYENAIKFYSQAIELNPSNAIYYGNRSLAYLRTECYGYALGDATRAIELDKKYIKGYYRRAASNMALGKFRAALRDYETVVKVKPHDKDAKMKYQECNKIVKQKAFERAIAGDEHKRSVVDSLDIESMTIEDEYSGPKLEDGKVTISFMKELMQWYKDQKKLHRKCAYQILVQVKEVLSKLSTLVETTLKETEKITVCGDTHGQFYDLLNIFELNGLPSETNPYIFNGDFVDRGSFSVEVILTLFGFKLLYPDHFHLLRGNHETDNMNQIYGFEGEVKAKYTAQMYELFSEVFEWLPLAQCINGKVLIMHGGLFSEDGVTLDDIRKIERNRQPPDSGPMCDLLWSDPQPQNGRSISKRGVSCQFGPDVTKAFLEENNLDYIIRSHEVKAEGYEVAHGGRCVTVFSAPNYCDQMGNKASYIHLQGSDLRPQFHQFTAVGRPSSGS
# Sequence of Lytic switch protein BZLF1 (P03206 whole entry): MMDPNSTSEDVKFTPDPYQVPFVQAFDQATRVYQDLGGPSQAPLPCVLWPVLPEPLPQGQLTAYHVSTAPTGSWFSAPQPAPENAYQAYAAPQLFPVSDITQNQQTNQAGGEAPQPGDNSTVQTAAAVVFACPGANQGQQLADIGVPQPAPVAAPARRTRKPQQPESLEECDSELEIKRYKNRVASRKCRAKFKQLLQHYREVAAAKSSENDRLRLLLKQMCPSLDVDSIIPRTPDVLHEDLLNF
# Sequence of G2/mitotic-specific cyclin-B1 (P14635 whole entry): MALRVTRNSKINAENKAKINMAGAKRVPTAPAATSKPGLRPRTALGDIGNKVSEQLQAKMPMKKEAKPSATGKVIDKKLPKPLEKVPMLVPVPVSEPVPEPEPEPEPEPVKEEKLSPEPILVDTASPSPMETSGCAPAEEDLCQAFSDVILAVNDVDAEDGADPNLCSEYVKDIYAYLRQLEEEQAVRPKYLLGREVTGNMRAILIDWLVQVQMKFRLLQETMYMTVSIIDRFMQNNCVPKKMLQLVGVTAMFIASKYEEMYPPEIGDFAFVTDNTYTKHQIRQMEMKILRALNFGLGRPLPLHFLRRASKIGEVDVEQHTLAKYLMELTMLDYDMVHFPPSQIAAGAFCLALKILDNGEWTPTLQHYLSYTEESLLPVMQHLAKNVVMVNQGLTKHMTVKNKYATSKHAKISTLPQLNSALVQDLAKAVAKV
# Sequence of NADPH oxidase 1 (Q9Y5S8 whole entry): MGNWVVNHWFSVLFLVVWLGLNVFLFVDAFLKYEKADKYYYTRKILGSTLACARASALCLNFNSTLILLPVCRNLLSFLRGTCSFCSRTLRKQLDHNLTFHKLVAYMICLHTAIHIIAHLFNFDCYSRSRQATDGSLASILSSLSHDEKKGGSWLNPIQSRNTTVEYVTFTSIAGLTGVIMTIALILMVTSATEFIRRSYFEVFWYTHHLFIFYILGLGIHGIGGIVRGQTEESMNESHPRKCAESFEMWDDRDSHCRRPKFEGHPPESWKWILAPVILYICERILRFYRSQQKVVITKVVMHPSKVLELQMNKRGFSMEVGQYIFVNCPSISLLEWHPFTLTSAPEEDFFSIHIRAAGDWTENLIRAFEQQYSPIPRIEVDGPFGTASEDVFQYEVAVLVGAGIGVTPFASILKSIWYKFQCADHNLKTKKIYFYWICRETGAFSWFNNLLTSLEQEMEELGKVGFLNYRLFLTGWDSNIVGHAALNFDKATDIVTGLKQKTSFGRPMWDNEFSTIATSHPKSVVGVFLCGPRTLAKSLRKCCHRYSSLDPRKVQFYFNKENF
# Sequence of Oxytocin receptor (P30559 whole entry): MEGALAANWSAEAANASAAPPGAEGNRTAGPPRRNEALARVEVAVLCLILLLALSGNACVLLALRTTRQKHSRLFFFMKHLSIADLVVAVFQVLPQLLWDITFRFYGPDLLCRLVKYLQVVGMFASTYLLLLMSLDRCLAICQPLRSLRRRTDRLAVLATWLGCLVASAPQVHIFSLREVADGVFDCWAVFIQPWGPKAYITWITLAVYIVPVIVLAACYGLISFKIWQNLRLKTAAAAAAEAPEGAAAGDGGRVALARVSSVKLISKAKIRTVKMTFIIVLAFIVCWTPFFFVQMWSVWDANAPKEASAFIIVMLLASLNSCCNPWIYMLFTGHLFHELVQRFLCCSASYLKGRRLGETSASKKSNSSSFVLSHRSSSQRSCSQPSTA
# Sequence of Mothers against decapentaplegic homolog 3 (P84022 whole entry): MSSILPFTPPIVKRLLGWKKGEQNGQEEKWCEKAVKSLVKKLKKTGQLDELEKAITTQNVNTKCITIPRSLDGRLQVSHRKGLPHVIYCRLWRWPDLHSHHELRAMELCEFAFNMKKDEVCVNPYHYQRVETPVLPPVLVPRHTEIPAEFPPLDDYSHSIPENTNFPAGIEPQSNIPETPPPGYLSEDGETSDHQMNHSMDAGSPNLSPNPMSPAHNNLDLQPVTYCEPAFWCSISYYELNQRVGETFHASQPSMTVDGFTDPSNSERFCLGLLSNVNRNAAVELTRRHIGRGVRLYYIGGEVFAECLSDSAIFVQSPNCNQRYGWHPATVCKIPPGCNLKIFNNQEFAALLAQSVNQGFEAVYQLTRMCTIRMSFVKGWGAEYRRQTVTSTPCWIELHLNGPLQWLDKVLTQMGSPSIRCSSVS
# Sequence of Epstein-Barr nuclear antigen 1 (P03211 whole entry): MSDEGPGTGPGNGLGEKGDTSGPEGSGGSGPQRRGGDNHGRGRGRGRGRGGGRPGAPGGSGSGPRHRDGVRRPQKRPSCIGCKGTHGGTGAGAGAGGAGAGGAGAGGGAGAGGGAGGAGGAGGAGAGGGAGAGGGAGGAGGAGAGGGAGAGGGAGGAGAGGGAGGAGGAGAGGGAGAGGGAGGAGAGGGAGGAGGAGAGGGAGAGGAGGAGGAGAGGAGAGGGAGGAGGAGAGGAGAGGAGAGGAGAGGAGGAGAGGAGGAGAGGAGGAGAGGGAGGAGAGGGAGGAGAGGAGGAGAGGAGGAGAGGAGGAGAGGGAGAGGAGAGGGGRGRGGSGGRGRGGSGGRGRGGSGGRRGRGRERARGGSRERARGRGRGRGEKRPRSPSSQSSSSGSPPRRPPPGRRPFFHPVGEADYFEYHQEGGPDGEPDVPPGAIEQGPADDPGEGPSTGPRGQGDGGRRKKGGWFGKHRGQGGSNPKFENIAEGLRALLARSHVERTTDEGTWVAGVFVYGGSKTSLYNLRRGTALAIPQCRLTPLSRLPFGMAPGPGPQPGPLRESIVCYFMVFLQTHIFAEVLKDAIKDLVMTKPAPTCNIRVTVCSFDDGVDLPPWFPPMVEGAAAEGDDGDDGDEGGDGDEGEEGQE
# Sequence of NS3 (A3EZJ3 whole entry): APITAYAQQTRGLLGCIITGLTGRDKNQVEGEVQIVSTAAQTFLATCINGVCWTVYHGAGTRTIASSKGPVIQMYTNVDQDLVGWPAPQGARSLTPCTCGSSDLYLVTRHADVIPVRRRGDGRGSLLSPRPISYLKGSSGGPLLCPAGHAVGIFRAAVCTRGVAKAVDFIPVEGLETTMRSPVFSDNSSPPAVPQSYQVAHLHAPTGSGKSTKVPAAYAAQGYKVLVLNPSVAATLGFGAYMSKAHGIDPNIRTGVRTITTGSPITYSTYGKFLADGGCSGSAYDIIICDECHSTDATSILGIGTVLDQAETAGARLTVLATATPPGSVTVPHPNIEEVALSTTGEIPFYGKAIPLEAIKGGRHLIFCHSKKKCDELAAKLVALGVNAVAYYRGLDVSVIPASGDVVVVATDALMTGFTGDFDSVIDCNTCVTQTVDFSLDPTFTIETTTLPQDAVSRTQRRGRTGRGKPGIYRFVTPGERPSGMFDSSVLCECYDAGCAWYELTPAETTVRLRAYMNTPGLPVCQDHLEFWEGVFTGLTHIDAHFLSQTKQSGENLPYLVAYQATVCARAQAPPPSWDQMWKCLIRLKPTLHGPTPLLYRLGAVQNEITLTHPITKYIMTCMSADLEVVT
# Sequence of Wee1-like protein kinase (P30291 whole entry): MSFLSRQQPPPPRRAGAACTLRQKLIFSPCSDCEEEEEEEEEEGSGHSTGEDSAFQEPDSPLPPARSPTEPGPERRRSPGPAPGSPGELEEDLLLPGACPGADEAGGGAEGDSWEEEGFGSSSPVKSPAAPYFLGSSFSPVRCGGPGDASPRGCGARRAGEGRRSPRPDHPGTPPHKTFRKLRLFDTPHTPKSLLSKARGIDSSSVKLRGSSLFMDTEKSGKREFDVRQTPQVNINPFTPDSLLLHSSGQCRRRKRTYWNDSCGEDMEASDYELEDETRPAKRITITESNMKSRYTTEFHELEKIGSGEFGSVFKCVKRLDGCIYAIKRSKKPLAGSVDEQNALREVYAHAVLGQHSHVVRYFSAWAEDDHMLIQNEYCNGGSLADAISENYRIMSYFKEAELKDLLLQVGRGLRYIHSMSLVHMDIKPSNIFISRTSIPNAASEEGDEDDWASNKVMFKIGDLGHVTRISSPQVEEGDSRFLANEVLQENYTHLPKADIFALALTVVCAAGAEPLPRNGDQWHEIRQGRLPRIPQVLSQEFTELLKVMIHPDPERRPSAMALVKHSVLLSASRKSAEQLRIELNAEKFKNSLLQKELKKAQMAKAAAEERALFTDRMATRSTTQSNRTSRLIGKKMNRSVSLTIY
# Sequence of Sphingosine 1-phosphate receptor 1 (P21453 whole entry): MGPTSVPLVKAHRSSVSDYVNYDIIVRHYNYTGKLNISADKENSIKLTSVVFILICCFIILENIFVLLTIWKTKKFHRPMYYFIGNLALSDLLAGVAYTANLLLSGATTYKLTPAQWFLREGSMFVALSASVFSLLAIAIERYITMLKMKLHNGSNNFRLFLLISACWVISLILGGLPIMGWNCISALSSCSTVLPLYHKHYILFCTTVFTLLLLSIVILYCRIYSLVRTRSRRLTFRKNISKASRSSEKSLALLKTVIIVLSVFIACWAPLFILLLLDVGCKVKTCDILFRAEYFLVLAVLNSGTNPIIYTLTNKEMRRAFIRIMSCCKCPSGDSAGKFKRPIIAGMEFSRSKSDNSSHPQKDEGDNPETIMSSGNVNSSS
structure (smiles),measurement,setting,value
COc1ccc(C2C(C(=O)c3ccc4c(c3)OCCO4)=C(O)C(=O)N2c2nc(C)c(C(C)=O)s2)cc1 (stereo not given),IC50,NS3,5.13 µM (active)
Cc1cccc(CSc2nc3c(cc2C#N)CCC3)c1,IC50,[1],18.5 µM (active)
COCCCNC(=O)Cn1cc(C(=O)C2CC2)c2ccccc21,EC50,[2],> 50 µM (not active)
CC(NC(=O)Nc1ccc([N+](=O)[O-])cc1)C(c1ccccc1)N1CCOCC1 (stereo not given),EC50,Oxytocin receptor,> 29.9 µM (not active)
same,EC50,Vasopressin V1a receptor,4.67 µM (active)
CCN(CC)c1ccc(/C=N/NC(=O)c2cnccn2)cc1,EC50,[3],> 49.7 µM (not active)
same,EC50,Wee1-like protein kinase,> 49.7 µM (not active)
O=C(Cn1ncc(Cl)c(Cl)c1=O)N1CCN(Cc2ccccc2)CC1,AC50,[4],34.1 µM (active)
same,AC50,[5],17.8 µM (active)
same,AC50,[6],7.54 µM (active)
same,IC50,[7],9.93 µM (active)
same,AC50,[8],11.1 µM (active)
same,EC50,[9],2.22 µM (active)
same,AC50,[10],31.5 µM (active)
same,CC50,Vero [11],11.3 µM (active)
same,AC50,[12],10.9 µM (active)
same,IC50,[13],2.16 µM (active)
same,EC50,[14],2.06 µM (active)
same,IC50,Vero [15],> 25 µM (active)
same,IC50,[16],3.5 µM (active)
same,IC50,[17],3.08 µM (active)
COc1ccc(-c2nc(-c3ccccc3)c(-c3ccccc3)[nH]2)cc1OC,IC50,NADPH oxidase 1,> 17 µM (not active)
C[C@@]12C(=O)OC(=O)[C@]1(C)C1CCC2O1,IC50,[18],> 10 µM (inactive)
same,IC50,[19],6.68 µM (inactive)
same,IC50,[20],13.7 µM (inactive)
same,IC50,[21],0.239 µM (active)
same,IC50,[22],> 10 µM (inactive)
COc1ccc(C(=O)Nc2nnc(Cc3cccs3)s2)cc1OC,IC50,[23],41.5 µM (not active)
same,IC50,[24],> 111 µM (not active)
same,IC50,[25],> 80 µM (inactive)
